From patent US20250000908A1, “METHODS FOR PREPARING AND ADMINISTERING CRYOPRESERVED PLATELETS AND PLATELET DERIVATIVES LOADED WITH ANTI-CANCER DRUGS” (Cellphire, Inc., priority 2023, published 2025)

How the values were obtained:
platelets = test: effect of antiplatelet compounds on DOX-induced platelet aggregation; type: cell-based; details: reagent at recommended concentration
HepG2 cells = test: receptor mediated binding between CPP or FPH and HepG2 cells with inhibitors / blocking mabs; type: cell-based, human; details: inhibitor / blocking mab tested, Table 7
Procedure: Receptor mediated binding between CPP or FPH with HepG2 cells was investigated by inhibiting either a platelet receptor or a HepG2 receptor. Pooled apheresis platelets were incubated with 50 μM CFDA-Se for 60 minutes at room temperature then acidified to pH of 6.6-6.8 with citric acid. CPP and FPH were then created as disclosed in Example 1 but without doxorubicin. Untreated HepG2 cells served as negative control groups. HepG2 cells were seeded at a density of 10^5 cells in a 12-well plate (NuncTM Cell-Culture Treated Multidishes, catalog no: 150628) After incubation for 24 hours, the original medium was […] hours with fresh 0.5% FBS DMEM (ATCC-formulated Eagle's Minimum Essential Medium, catalog No. 30-2003). To determine the effect of platelet receptor inhibition on the binding between CPP/FPH and HepG2 cells first both CPP and FPH were incubated with tirofiban to block the GpIIb/IIIa receptor. Then the HepG2 cells were supplemented with tirofiban treated CPP, tirofiban treated FPH, untreated CPP, or untreated FPH at an equivalent platelet count of 0.3×10^6 platelets/μl. The cells were then washed with cold PBS three times, harvested by a scraper, and then suspended in PBS. The fluorescence intensity was determined by flow cytometry with the FITC channel. Approximately 10,0000 events for each sample was measured to assess the surface binding between the HepG2 cells and tirofiban treated CPP or FPH. To determine the effect of HepG2 receptor inhibition on the binding between CPP/FPH and HepG2 cells, first HepG2 cells were treated with either anti-podoplanin blocking monoclonal antibody or phagocytosis (wortmannin) inhibitor for 30 minutes. Then the HepG2 cells were incubated with either CPP or FPH. The HepG2 cells were washed with cold PBS three times, harvested by a scraper, and then suspended in PBS. The fluorescence intensity was determined by flow cytometry with the FITC channel. Approximately 10,0000 events for each sample was measured to assess the surface binding between the HepG2 cells CPP or FPH. […]

GPIIb/IIIa = GPIIb/IIIa (Homo sapiens, UniProt P05106+P08514); details: printed as recommended concentration; source PMID: 9700979; cited from earlier work
Chain of GPIIb/IIIa (P08514 32-887 limits assumed): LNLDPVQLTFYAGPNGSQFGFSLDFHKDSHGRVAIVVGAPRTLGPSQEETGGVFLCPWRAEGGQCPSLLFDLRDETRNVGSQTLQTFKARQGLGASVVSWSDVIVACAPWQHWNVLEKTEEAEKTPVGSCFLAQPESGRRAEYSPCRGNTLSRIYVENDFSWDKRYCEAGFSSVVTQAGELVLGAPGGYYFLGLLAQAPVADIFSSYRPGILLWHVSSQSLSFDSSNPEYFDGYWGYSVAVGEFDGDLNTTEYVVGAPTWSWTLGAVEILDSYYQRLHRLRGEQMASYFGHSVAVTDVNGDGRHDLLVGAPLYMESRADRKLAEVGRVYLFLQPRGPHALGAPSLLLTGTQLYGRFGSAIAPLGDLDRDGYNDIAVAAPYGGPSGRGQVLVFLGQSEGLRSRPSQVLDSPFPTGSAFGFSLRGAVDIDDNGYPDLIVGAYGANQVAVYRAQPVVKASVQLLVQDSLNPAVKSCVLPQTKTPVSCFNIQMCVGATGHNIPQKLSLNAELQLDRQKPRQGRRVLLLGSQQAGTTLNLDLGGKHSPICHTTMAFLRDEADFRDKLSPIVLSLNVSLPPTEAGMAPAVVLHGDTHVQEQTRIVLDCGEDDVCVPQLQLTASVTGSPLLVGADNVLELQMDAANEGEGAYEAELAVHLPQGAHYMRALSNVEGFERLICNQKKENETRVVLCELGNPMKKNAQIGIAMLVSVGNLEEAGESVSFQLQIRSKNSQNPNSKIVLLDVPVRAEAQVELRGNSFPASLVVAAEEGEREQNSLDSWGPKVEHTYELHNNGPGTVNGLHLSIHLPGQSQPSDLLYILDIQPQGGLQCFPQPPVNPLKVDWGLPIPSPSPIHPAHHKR
Chain of GPIIb/IIIa (P08514 891-1039 partner limits assumed): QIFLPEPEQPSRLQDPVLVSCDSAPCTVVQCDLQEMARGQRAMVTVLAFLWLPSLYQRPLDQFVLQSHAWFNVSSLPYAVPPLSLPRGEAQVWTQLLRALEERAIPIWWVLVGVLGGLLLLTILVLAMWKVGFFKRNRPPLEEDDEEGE
Chain of GPIIb/IIIa (P05106 27-788): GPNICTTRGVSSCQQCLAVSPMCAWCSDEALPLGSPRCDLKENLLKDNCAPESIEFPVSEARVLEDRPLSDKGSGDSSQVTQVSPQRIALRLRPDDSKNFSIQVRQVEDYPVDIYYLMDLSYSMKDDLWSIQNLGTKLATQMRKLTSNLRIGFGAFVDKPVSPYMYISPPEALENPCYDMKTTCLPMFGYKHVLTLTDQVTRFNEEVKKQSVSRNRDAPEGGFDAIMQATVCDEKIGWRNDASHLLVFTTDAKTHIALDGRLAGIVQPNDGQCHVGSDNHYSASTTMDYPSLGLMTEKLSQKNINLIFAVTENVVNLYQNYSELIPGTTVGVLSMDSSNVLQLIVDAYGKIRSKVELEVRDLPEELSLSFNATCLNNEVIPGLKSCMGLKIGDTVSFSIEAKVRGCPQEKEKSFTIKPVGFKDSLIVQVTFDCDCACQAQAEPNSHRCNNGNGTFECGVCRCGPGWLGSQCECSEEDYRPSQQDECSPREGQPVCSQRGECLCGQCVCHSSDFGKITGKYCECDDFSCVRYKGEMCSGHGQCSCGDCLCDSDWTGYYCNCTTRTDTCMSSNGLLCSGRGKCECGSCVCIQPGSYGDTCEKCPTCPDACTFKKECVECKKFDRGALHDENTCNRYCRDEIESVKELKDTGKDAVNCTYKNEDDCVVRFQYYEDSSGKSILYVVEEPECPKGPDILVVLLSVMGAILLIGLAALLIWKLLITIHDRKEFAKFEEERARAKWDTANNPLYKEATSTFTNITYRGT

SMILES | Max Platelet Count (Normalized to Untreated) (platelets; 0.5 mg/mL DOX) | Max Platelet Count (Normalized to Untreated) (platelets; 1 mg/mL DOX) | further results
CSCCNc1nc(SCCC(F)(F)F)nc2c1ncn2[C@@H]1O[C@H](COP(=O)(O)OP(=O)(O)C(Cl)(Cl)P(=O)(O)O)[C@@H](O)[C@H]1O [Cangrelor] | 47% | 26% | 
CCCCS(=O)(=O)N[C@@H](Cc1ccc(OCCCCC2CCNCC2)cc1)C(=O)O [Tirofiban] |  |  | Max Platelet Count (Normalized to Untreated) (platelets; 0.6 mM DOX): 73%; change of CPP/FPH binding to HepG2 cells in comparison to control (HepG2 cells): Significance
Nc1c(S(=O)(=O)O)cc(Nc2ccc(Nc3ccccc3)c(S(=O)(=O)O)c2)c2c1C(=O)c1ccccc1C2=O [PSB 0739] | 26% | 18% | 
COC(=O)/C=C1/SC(=NC(=O)c2ccc(Cl)cc2Cl)N(c2ccc(Cl)cc2)C1=O [FR171113] | 51% | 16% | 
CC(=O)Oc1ccccc1C(=O)O [Aspirin (ASA), Aspirin] | 52% | 15% | 
CN(C)CCCN1c2ccccc2Sc2ccc(Cl)cc21 [Chlorpromazine] |  |  | change of CPP/FPH binding to HepG2 cells in comparison to control (HepG2 cells): No Significance
CSc1nc(N)c2ncn([C@@H]3O[C@H](COP(=O)(O)OP(=O)(O)O)[C@@H](O)[C@H]3O)c2n1 [MeSADP] | 33% | 10% | 
CC(=O)N[C@@H](CS)C(=O)O [N-Acetylcysteine] |  |  | Max Platelet Count (Normalized to Untreated) (platelets; 0.6 mM DOX): 73%
O=c1c(-c2ccc(O)cc2)coc2cc(O)cc(O)c12 [Genistein] |  |  | change of CPP/FPH binding to HepG2 cells in comparison to control (HepG2 cells): No Significance
Cl.Cl.Cl.N=C(N)c1ccc(N2CCN(C3CCN(CC(=O)O)CC3)CC2)cc1 [GR144053] | 83% | 42% | IC50 (GPIIb/IIIa): 37 nM
CC1(C)CC(NC(=O)C[P+](c2ccccc2)(c2ccccc2)c2ccccc2)CC(C)(C)N1[O] [MitoTEMPO] |  |  | Max Platelet Count (Normalized to Untreated) (platelets; 1.2 mM DOX): 37%
